Common to all, as to format: binding
The target in one assay is T1, ADORA3 (Homo sapiens, UniProt P0DMS8).
T1 construct: purchased Promega (in-house HiBiT-GPCR construct library, NanoBRET)
T1 sequence (P0DMS8 1-318): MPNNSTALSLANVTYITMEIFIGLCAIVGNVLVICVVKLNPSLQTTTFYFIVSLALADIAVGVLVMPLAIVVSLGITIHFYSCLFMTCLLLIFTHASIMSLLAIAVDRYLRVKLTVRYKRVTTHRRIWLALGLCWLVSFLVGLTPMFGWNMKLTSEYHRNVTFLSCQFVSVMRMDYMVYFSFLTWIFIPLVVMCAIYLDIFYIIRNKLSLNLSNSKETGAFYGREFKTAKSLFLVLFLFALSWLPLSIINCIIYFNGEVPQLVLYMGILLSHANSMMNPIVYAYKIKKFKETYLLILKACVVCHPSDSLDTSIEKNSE
The experiment in a line: NanoBRET screen HiBiT-ADORA3 in HEK293. The method, then: (§1) Each tracer candidate was screened across the entire library of HiBiT-GPCR constructs using NanoBRET as the detection modality. As depicted in Figure 4A, the specificity of interactions was evaluated through decrease in BRET due to competitive displacement of a bound tracer by excess parental compound. Each tracer was analyzed for binding to each HiBiT-GPCR fusion in the absence and in the presence of competing parental compound. Briefly, HEK293 cells were transfected with HiBiT-GPCR constructs diluted into promoterless DNA to reduce expression and maximize translocation to the cell surface. Each tracer candidate was then screened at concentrations of 1 μM and 0.1 μM across cells expressing these fusions. Cells were treated for 1.5 h with tracer either alone or in the presence of 20 μM competing parental compound (i.e., control). BRET was measured upon addition of purified LgBiT and subsequent complementation with HiBiT genetically fused to a GPCR. The specificity of interactions was assessed through a decrease in BRET signal due to competitive displacement of the bound tracer. To further gauge the robustness of these interactions, the fold response over the control (i.e., BRETtracer/BRETcontrol) was calculated. We chose a 1.5-fold response, which translates to ≥7-fold signal over noise as the minimal threshold required to score an interaction as positive. […]. Below we highlight the screening results obtained for our exemplary fluorescent tracers based on Clozapine, Amitriptyline and AZD1283.
(§2) HiBiT-GPCR DNA constructs were diluted in 10 mM Tris pH 8 to a final concentration of 0.01 μg/μL, arrayed in 96-well plates and stored at −20 °C. For transfection, HEK293 cells were suspended in Opti-MEM (without phenol red) supplemented with 2% fetal bovine serum (Seradigm) and 100 units/mL penicillin–streptomycin (Gibco) at a final concentration of 220,000 cells/mL and dispensed into white 96-well plates at 90 μL/well. Subsequent transfections and screens were carried using an Agilent Bravo Automated Liquid Handling Platform. First, the 96-well HiBiT DNA arrays were diluted 25-fold in Opti-MEM (without serum or phenol red) to a final concentration of 0.0004 μg/μL and 20 μL of the diluted DNAs were transferred into new 96-well plates. Next, promoterless carrier DNA (1 μg/μL) was diluted 25-fold (0.04 μg/μL) and then dispensed into the diluted arrays at 20 μL/well. Following brief mixing, Viafect transfection reagent (Promega) diluted 16-fold into Opti-MEM was dispensed into the plates at 40 μL/well. After mixing by pipetting, plates were incubated for 10 min on the pipetting station deck. The DNA-transfection reagent complexes were then added to plates containing cells. To facilitate the screen, 10 μL of DNA-transfection reagent complexes were added in duplicates to the top 4 and bottom 4 rows, resulting in two identical 48-well arrays per plate. Plates with transfected cells were incubated for 18–20 h at 37 °C/5% CO2. A screen of each tracer across the entire library using two different concentrations requires duplicate plates of transfected cells. Depending on the number of tracers being screened, transfections can be scaled up using the same ratios. The next day, for each tracer, four 20× screening solutions in tracer dilution buffer (Promega) were prepared: two duplicates at final concentration of 20 μM and two duplicates at a final concentration of 2 μM. A competing unmodified compound was added to one of each duplicate at a final concentration of 400 μM. The four resulting solutions were diluted 4-fold in Opti-MEM without serum or phenol red to generate 5× solutions (5 µM and 0.5 µM tracer +/− 100 μM competing compound). To screen the library, a BioTek MultiFlo FX liquid dispenser was used to dispense 22.5 µL of tracer solution to the top 4 rows and 22.5 µL tracer + competing compound solution to the 4 bottom rows. Plates were briefly mixed on an orbital shaker and incubated for 1.5 h at room temperature. […]
Background: BRET reads energy transfer from a luciferase to a nearby fluorophore.

Another assay has as its target T2, BDKRB1 (Homo sapiens, UniProt P46663).
T2 construct: purchased Promega (in-house HiBiT-GPCR construct library, NanoBRET)
T2 sequence (P46663 1-353): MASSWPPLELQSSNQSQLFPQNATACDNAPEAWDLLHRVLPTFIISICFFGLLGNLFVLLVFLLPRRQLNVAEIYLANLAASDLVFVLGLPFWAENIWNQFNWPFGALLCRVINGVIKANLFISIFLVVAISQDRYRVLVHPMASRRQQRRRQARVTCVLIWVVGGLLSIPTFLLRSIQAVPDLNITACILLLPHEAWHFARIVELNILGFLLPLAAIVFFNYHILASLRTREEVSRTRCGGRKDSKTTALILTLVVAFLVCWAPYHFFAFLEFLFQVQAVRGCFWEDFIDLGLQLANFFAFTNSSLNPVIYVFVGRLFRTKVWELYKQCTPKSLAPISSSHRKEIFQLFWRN
The experiment in a line: NanoBRET screen HiBiT-BDKRB1 in HEK293. The protocol: as §1, §2

The target in a further assay is T3, MC4R (Homo sapiens, UniProt P32245).
T3 construct: purchased Promega (in-house HiBiT-GPCR construct library, NanoBRET)
T3 sequence (P32245 whole entry): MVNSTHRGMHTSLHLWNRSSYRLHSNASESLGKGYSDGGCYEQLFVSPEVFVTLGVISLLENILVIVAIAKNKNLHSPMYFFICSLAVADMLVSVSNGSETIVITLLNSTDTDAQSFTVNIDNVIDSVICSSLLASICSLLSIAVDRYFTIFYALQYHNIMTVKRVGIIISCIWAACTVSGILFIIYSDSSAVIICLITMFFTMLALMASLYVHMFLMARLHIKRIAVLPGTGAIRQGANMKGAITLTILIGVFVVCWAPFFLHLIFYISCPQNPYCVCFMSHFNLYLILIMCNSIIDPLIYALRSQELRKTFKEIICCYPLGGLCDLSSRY
Description: NanoBRET screen HiBiT-MC4R in HEK293. The method, then:
as §1, §2

[1] abbreviates: tracer at 0.1μM, listed as amitriptyline-b-2-NB590.
The mark [2] stands for this setting: tracer at 1μM, listed as amitriptyline-b-2-NB590.

The values below come from publication PMC8151276, “An Integrated Approach toward NanoBRET Tracers for Analysis of GPCR Ligand Engagement” (Molecules, 2021).

As for `CN1CCN(C2=Nc3cc(Cl)ccc3Nc3ccc(CNC(=O)CCOCCOCCOCCOCCNC(=O)CCc4ccc5n4[B-](F)(F)[N+]4=C(c6ccc[nH]6)C=CC4=C5)cc32)CC1` [Clozapine-b-2-NB590], the “NanoBRET Fold Response” value at ADORA3 (ADORA3, 0.1μM tracer) was 1.02; at ADORA3 (ADORA3, 1μM tracer) it was 1.08; on BDKRB1 (BDKRB1, 0.1μM tracer) it was 0.99; at BDKRB1 (BDKRB1, 1μM tracer), 0.92; at MC4R (MC4R, 0.1μM tracer), 1.03; on MC4R (MC4R, 1μM tracer), 1.05.

As for `COc1ccccc1N1CCN(CCCCN2C(=O)c3ccc(CNC(=O)CCOCCNC(=O)c4ccc(CNC(=O)CCc5ccc6n5[B-](F)(F)[N+]5=C(c7ccc[nH]7)C=CC5=C6)cc4)cc3C2=O)CC1` [NAN-190-3-NB590], the “NanoBRET Fold Response” value is 0.97 on ADORA3 (ADORA3, tracer 0.1μM); 1.19 on ADORA3 (ADORA3, tracer 1μM); 0.84 on BDKRB1 (BDKRB1, tracer 0.1μM); 1.05 at BDKRB1 (BDKRB1, tracer 1μM); 1.05 at MC4R (MC4R, tracer 0.1μM); 0.83 on MC4R (MC4R, tracer 1μM).

For the molecule `N#CN=C(NCCCOc1cccc(CN2CCCCC2)c1)NCCNC(=O)CCOCCOCCOCCOCCNC(=O)CCc1ccc2n1[B-](F)(F)[N+]1=C(c3ccc[nH]3)C=CC1=C2` [Aminopotentidine-2-NB590], the “NanoBRET Fold Response” value on ADORA3 (ADORA3, tracer 0.1μM) turned out to be 1.16; at ADORA3 (ADORA3, tracer 1μM) it was 1.03; at BDKRB1 (BDKRB1, tracer 0.1μM), 1.01; at BDKRB1 (BDKRB1, tracer 1μM), 1.02; on MC4R (MC4R, tracer 0.1μM), 0.99; at MC4R (MC4R, tracer 1μM), 0.89.

Take `CN(C)CCC=C1c2ccccc2CCc2ccc(C(=O)NCCNC(=O)CCOCCOCCOCCOCCNC(=O)CCc3ccc4n3[B-](F)(F)[N+]3=C(c5ccc[nH]5)C=CC3=C4)cc21` [Amitriptyline-b-2-NB590]: the “NanoBRET Fold Response” value amounted to 0.87 on ADORA3 (setting [1]); 0.66 on ADORA3 (setting [2]); 1.14 on BDKRB1 (setting [1]); 1.33 on BDKRB1 (setting [2]); 1.00 on MC4R (tracer at 0.1μM); 1.02 on MC4R (tracer at 1μM).

As to `COc1ccccc1N1CCN(CCCCN2C(=O)c3ccc(CNC(=O)CCOCCOCCOCCOCCNC(=O)CCc4ccc5n4[B-](F)(F)[N+]4=C(c6ccc[nH]6)C=CC4=C5)cc3C2=O)CC1` [NAN-190-2-NB590], the “NanoBRET Fold Response” value on ADORA3 (ADORA3, tracer 0.1μM) was found to be 0.96; on ADORA3 (ADORA3, tracer 1μM), 0.89; on BDKRB1 (BDKRB1, tracer 0.1μM) it was 1.05; on BDKRB1 (BDKRB1, tracer 1μM) it was 1.06; on MC4R (MC4R, tracer 0.1μM), 0.97; on MC4R (MC4R, tracer 1μM) it was 1.01.

Turning to `O=C(CCOCCOCCOCCOCCNC(=O)CCc1ccc2n1[B-](F)(F)[N+]1=C(c3ccc[nH]3)C=CC1=C2)NCCCN1CCN(C2=Nc3ccccc3Oc3ccc(Cl)cc32)CC1` [Loxapine-a-2-NB590], the “NanoBRET Fold Response” value on ADORA3 (ADORA3, tracer 0.1μM) stood at 1.04; on ADORA3 (ADORA3, tracer 1μM), 0.78; on BDKRB1 (BDKRB1, tracer 0.1μM), 1.05; at BDKRB1 (BDKRB1, tracer 1μM), 1.27; at MC4R (MC4R, tracer 0.1μM) it was 1.04; on MC4R (MC4R, tracer 1μM), 1.04.

For the molecule `CCCn1c(=O)c2[nH]c(-c3ccc(OCC(=O)NCCNC(=O)CCOCCNC(=O)c4ccc(CNC(=O)CCc5ccc6n5[B-](F)(F)[N+]5=C(c7ccc[nH]7)C=CC5=C6)cc4)cc3)nc2n(CCC)c1=O` [XAC-3-NB590], the “NanoBRET Fold Response” value was determined as 12.13 at ADORA3 (ADORA3, tracer 0.1μM); 6.72 at ADORA3 (ADORA3, tracer 1μM); 0.91 on BDKRB1 (BDKRB1, tracer 0.1μM); 0.94 on BDKRB1 (BDKRB1, tracer 1μM); 1.02 at MC4R (MC4R, tracer 0.1μM); 1.04 on MC4R (MC4R, tracer 1μM).

As to `CCOC(=O)c1cc(C#N)c(N2CCC(C(=O)NS(=O)(=O)Cc3ccccc3/C=C/C(=O)NCCNC(=O)CCc3ccc4n3[B-](F)(F)[N+]3=C(c5ccc[nH]5)C=CC3=C4)CC2)nc1C` [AZD1283-1-NB590], the “NanoBRET Fold Response” value came to 1.11 at ADORA3 (ADORA3, 0.1μM); 1.09 at ADORA3 (ADORA3, 1μM); 1.05 at BDKRB1 (BDKRB1, 0.1μM); 1.04 on BDKRB1 (BDKRB1, 1μM); 0.98 on MC4R (MC4R, 0.1μM); 1.01 on MC4R (MC4R, 1μM).
